Measurements as given in the supplement of paper PMC13207355.
Where a name gives a salt, the structure may show the parent alone.

Legend:
Conditions in all cases: exposure time: 72 h
E34 [1] = patient-derived glioblastoma stem cells of proneural subtype; test: phenotypic distance (Euclidean, principal components) from DMSO controls (arbitrary units); higher = stronger morphological change
E31 [2] = patient-derived glioblastoma stem cells of proneural subtype; test: as above
E21 [3] = patient-derived glioblastoma stem cells of mesenchymal subtype; test: as above
E28 [4] = patient-derived glioblastoma stem cells of classical subtype; test: as above
E57 [5] = patient-derived glioblastoma stem cells of mesenchymal subtype; test: as above
E13 [6] = patient-derived glioblastoma stem cells of classical subtype; test: as above
FT3469 [7] = normal neural stem cell line; test: as above
E34 [8] = test: surviving fraction (nuclei count normalised to DMSO); higher = more cells surviving (less toxic)
E31 [9] = test: as above
E21 [10] = test: as above
E28 [11] = test: as above
E57 [12] = test: as above
E13 [13] = test: as above
FT3469 [14] = test: as above
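For phenotypic distance (Euclidean, principal components) from DMSO controls in this document: cell Painting imaging in 384-well plates, CellProfiler features reduced to at least 20 principal components, Euclidean distance versus same-plate DMSO vehicle wells (0.1% v/v), median over six images per well.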
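For surviving fraction (nuclei count normalised to DMSO) in this document: nuclei counted by high-content imaging of Hoechst-stained cells in laminin-coated 384-well plates, relative to 0.1% DMSO vehicle wells, with staurosporine as cell-death control.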

Nc1nc(Cl)nc2c1ncn2[C@@H]1O[C@H](CO)[C@@H](O)[C@@H]1F [Clofarabine]
Conditions	phenotypic distance	surviving fraction
E13 [6], 4.1 nM	0.623	–
E13 [6], 12.3 nM	2.78	–
E13 [6], 37 nM	0.684	–
E13 [6], 111.1 nM	0.632	–
E13 [6], 333.3 nM	0.616	–
E13 [6], 1000 nM	1.66	–
E13 [6], 3000 nM	5.91	–
E13 [13], 4.1 nM	–	0.852
E13 [13], 12.3 nM	–	0.979
E13 [13], 37 nM	–	0.86
E13 [13], 111.1 nM	–	0.941
E13 [13], 333.3 nM	–	0.913
E13 [13], 1000 nM	–	0.789
E13 [13], 3000 nM	–	0.318
E21 [3], 4.1 nM	0.844	–
E21 [3], 12.3 nM	1.11	–
E21 [3], 37 nM	1.36	–
E21 [3], 111.1 nM	2.15	–
E21 [3], 333.3 nM	4.37	–
E21 [3], 1000 nM	4.92	–
E21 [3], 3000 nM	4.35	–
E21 [10], 4.1 nM	–	0.962
E21 [10], 12.3 nM	–	0.885
E21 [10], 37 nM	–	0.825
E21 [10], 111.1 nM	–	0.771
E21 [10], 333.3 nM	–	0.343
E21 [10], 1000 nM	–	0.118
E21 [10], 3000 nM	–	0.116
E28 [4], 4.1 nM	1.24	–
E28 [4], 12.3 nM	1.42	–
E28 [4], 37 nM	1.73	–
E28 [4], 111.1 nM	2.31	–
E28 [4], 333.3 nM	3.06	–
E28 [4], 1000 nM	3.17	–
E28 [4], 3000 nM	3.21	–
E28 [11], 4.1 nM	–	0.864
E28 [11], 12.3 nM	–	0.907
E28 [11], 37 nM	–	0.515
E28 [11], 111.1 nM	–	0.559
E28 [11], 333.3 nM	–	0.341
E28 [11], 1000 nM	–	0.366
E28 [11], 3000 nM	–	0.3
E31 [2], 4.1 nM	1.08	–
E31 [2], 12.3 nM	1.33	–
E31 [2], 37 nM	1.67	–
E31 [2], 111.1 nM	2.85	–
E31 [2], 333.3 nM	3.28	–
E31 [2], 1000 nM	2.52	–
E31 [2], 3000 nM	2.66	–
E31 [9], 4.1 nM	–	0.754
E31 [9], 12.3 nM	–	0.892
E31 [9], 37 nM	–	0.64
E31 [9], 111.1 nM	–	0.205
E31 [9], 333.3 nM	–	0.142
E31 [9], 1000 nM	–	0.236
E31 [9], 3000 nM	–	0.206
E34 [1], 4.1 nM	0.795	–
E34 [1], 12.3 nM	0.848	–
E34 [1], 37 nM	0.943	–
E34 [1], 111.1 nM	2.17	–
E34 [1], 333.3 nM	3.94	–
E34 [1], 1000 nM	3.25	–
E34 [1], 3000 nM	3.42	–
E34 [8], 4.1 nM	–	0.858
E34 [8], 12.3 nM	–	1.04
E34 [8], 37 nM	–	0.894
E34 [8], 111.1 nM	–	0.777
E34 [8], 333.3 nM	–	0.558
E34 [8], 1000 nM	–	0.495
E34 [8], 3000 nM	–	0.541
E57 [5], 4.1 nM	0.635	–
E57 [5], 12.3 nM	1.15	–
E57 [5], 37 nM	2.09	–
E57 [5], 111.1 nM	5.48	–
E57 [5], 333.3 nM	5.92	–
E57 [5], 1000 nM	6.82	–
E57 [5], 3000 nM	6.53	–
E57 [12], 4.1 nM	–	0.939
E57 [12], 12.3 nM	–	0.847
E57 [12], 37 nM	–	0.741
E57 [12], 111.1 nM	–	0.402
E57 [12], 333.3 nM	–	0.186
E57 [12], 1000 nM	–	0.168
E57 [12], 3000 nM	–	0.165
FT3469 [7], 4.1 nM	0.724	–
FT3469 [7], 12.3 nM	0.807	–
FT3469 [7], 37 nM	0.917	–
FT3469 [7], 111.1 nM	1.95	–
FT3469 [7], 333.3 nM	2.04	–
FT3469 [7], 1000 nM	1.6	–
FT3469 [7], 3000 nM	2.19	–
FT3469 [14], 4.1 nM	–	0.827
FT3469 [14], 12.3 nM	–	0.915
FT3469 [14], 37 nM	–	0.875
FT3469 [14], 111.1 nM	–	0.79
FT3469 [14], 333.3 nM	–	0.702
FT3469 [14], 1000 nM	–	0.497
FT3469 [14], 3000 nM	–	0.428

NC1CCN(c2nc3c(cc2F)c(=O)c(C(=O)O)cn3-c2ccc(F)cc2F)C1 (stereo unspecified) [Tosufloxacin hydrochloride]
Conditions	phenotypic distance	surviving fraction
E13 [6], 4.1 nM	0.747	–
E13 [6], 12.3 nM	0.689	–
E13 [6], 37 nM	0.471	–
E13 [6], 111.1 nM	0.593	–
E13 [6], 333.3 nM	0.883	–
E13 [6], 1000 nM	0.502	–
E13 [6], 3000 nM	0.704	–
E13 [13], 4.1 nM	–	0.947
E13 [13], 12.3 nM	–	1.13
E13 [13], 37 nM	–	0.977
E13 [13], 111.1 nM	–	1.05
E13 [13], 333.3 nM	–	1.01
E13 [13], 1000 nM	–	1
E13 [13], 3000 nM	–	1.04
E21 [3], 4.1 nM	0.748	–
E21 [3], 12.3 nM	0.836	–
E21 [3], 37 nM	0.56	–
E21 [3], 111.1 nM	0.309	–
E21 [3], 333.3 nM	0.495	–
E21 [3], 1000 nM	0.751	–
E21 [3], 3000 nM	0.725	–
E21 [10], 4.1 nM	–	0.969
E21 [10], 12.3 nM	–	1.06
E21 [10], 37 nM	–	1.02
E21 [10], 111.1 nM	–	0.964
E21 [10], 333.3 nM	–	0.988
E21 [10], 1000 nM	–	0.989
E21 [10], 3000 nM	–	0.906
E28 [4], 4.1 nM	3.44	–
E28 [4], 12.3 nM	0.615	–
E28 [4], 37 nM	0.624	–
E28 [4], 111.1 nM	0.684	–
E28 [4], 333.3 nM	0.493	–
E28 [4], 1000 nM	0.455	–
E28 [4], 3000 nM	0.886	–
E28 [11], 4.1 nM	–	0.969
E28 [11], 12.3 nM	–	1.18
E28 [11], 37 nM	–	0.9
E28 [11], 111.1 nM	–	1.12
E28 [11], 333.3 nM	–	0.975
E28 [11], 1000 nM	–	1.01
E28 [11], 3000 nM	–	0.898
E31 [2], 4.1 nM	0.809	–
E31 [2], 12.3 nM	0.633	–
E31 [2], 37 nM	0.706	–
E31 [2], 111.1 nM	0.608	–
E31 [2], 333.3 nM	0.538	–
E31 [2], 1000 nM	0.815	–
E31 [2], 3000 nM	0.521	–
E31 [9], 4.1 nM	–	0.78
E31 [9], 12.3 nM	–	0.861
E31 [9], 37 nM	–	0.987
E31 [9], 111.1 nM	–	0.892
E31 [9], 333.3 nM	–	1.06
E31 [9], 1000 nM	–	0.836
E31 [9], 3000 nM	–	0.849
E34 [1], 4.1 nM	0.608	–
E34 [1], 12.3 nM	0.861	–
E34 [1], 37 nM	0.802	–
E34 [1], 111.1 nM	0.784	–
E34 [1], 333.3 nM	0.625	–
E34 [1], 1000 nM	0.557	–
E34 [1], 3000 nM	0.971	–
E34 [8], 4.1 nM	–	0.948
E34 [8], 12.3 nM	–	0.869
E34 [8], 37 nM	–	0.977
E34 [8], 111.1 nM	–	0.985
E34 [8], 333.3 nM	–	0.916
E34 [8], 1000 nM	–	1.03
E34 [8], 3000 nM	–	0.856
E57 [5], 4.1 nM	0.751	–
E57 [5], 12.3 nM	0.527	–
E57 [5], 37 nM	0.691	–
E57 [5], 111.1 nM	0.438	–
E57 [5], 333.3 nM	0.382	–
E57 [5], 1000 nM	0.743	–
E57 [5], 3000 nM	0.801	–
E57 [12], 4.1 nM	–	1.03
E57 [12], 12.3 nM	–	1.03
E57 [12], 37 nM	–	1
E57 [12], 111.1 nM	–	1.06
E57 [12], 333.3 nM	–	0.946
E57 [12], 1000 nM	–	1.09
E57 [12], 3000 nM	–	0.903
FT3469 [7], 4.1 nM	0.676	–
FT3469 [7], 12.3 nM	0.401	–
FT3469 [7], 37 nM	0.584	–
FT3469 [7], 111.1 nM	0.591	–
FT3469 [7], 333.3 nM	3.26	–
FT3469 [7], 1000 nM	0.468	–
FT3469 [7], 3000 nM	0.933	–
FT3469 [14], 4.1 nM	–	0.927
FT3469 [14], 12.3 nM	–	0.952
FT3469 [14], 37 nM	–	1.13
FT3469 [14], 111.1 nM	–	0.908
FT3469 [14], 333.3 nM	–	0.964
FT3469 [14], 1000 nM	–	0.96
FT3469 [14], 3000 nM	–	0.913
